From patent publication US11571454B2, “Anticancer peptides that synergistically enhance chemotherapeutic potency” (The Penn State Research Foundation, priority 2017, dated 2023)

Assays:
NCI/ADR-RES cells = experiment: Combinatorial (checkerboard) cytotoxicity, NCI/ADR-RES; type: cell-based, human; conditions: for Combined FIC Score, NCl/ADR-RES: chemotherapeutic in combination with MAD1, FIC <1 additive, <0.5 synergistic; for synergy with MAD1, NCI/ADR-RES: multidrug resistant line, combination with MAD1; for drug potency (IC50) in NCI/ADR-RES on co-treatment with MAD1: in the presence of 20 μM MAD1, compared with OVCAR-3
Text: (§1) For combinatorial cytotoxicity experiments, 96 well plates were set up in a checkerboard fashion such that peptide decreased in 1:10 concentration dilutions in one direction and chemotherapeutic decreased in 1:10 concentration dilutions in the orthogonal direction. 2×treatments were combined prior to cell administration for a final 1×concentration to prevent individual treatment effects.

[1] = test system: human lung epithelium (NL20); conditions: 48 h
[2] = test system: T24 (urinary bladder transitional cell carcinoma) cells; experiment: MTT cytotoxicity assay, T24; conditions: IC50-HUVEC/IC50-T24
MR S. aureus = conditions: 24 hours, Gram Positive
[3] = test system: human umbilical vein endothelial cells (HUVEC); conditions: 48 h
[4] = test system: T24 (urinary bladder transitional cell carcinoma) cells; conditions: 48 h
[5] = test system: panel of human cancer cell lines (A549, OVCAR-3, NCI/ADR-RES, T24)
M. tuberculosis = conditions: 24 hours, Mycobacteria
[6] = test system: A549 (lung carcinoma) cells; experiment: MTT cytotoxicity assay, A549; type: cell-based, human; conditions: for IC50: 48 hours treatment, MTT, read-out: Cancerous (IC50, μM) A549
Procedure: (§2) All cells were cultured using standard culture conditions at 37° C., 5% CO2, and 95% humidity. A549 (CCL-185), OVCAR-3 (HTB-161), T24 (HTB-4), and NCI/ADR-RES were cultured in RPMI-1640 supplemented with 10% v/v fetal bovine serum (FBS), 2 mM L-glutamine (L-Gln), 10,000 units penicillin/mL, 10 mg/mL streptomycin, and 25 μg/mL amphotericin B. HUVEC (PCS-100-010) cells were cultured in Vascular Cell Basal Media (PCS-100-030) supplemented with an Endothelial Cell Growth Kit-VEGF (PCS-100-041) and 10 μg/mL gentamycin in culture flasks coated with 0.1% gelatin by incubating at 37° C. for 15 min. NL20 (CRL-2503) cells were cultured in Ham's F12 supplemented with 1.5 g/L sodium bicarbonate, 2.7 g/L glucose, 2.0 mM L-glutamine, 0.1 mM nonessential amino acids, 0.005 mg/ml insulin, 10 ng/ml epidermal growth factor, 0.001 mg/ml transferrin, 500 ng/ml hydrocortisone and 4% fetal bovine serum, as advised by American Type Culture Collection (ATCC).
(§3) Viability was calculated by comparing to an untreated control.
(§4) All experiments were performed with n>6.
(§5) Cell viability experiments were completed n>6 in two independent experiments and analyzed using GraphPad Prism 8 to fit curves and calculate IC50 values using inhibitor vs. normalized response non-linear regression model. IC50 values are reported as mean values±standard deviation. […] Pore size frequency distribution was completed by ImageJ FIJI on 4 independent cells and n=30 pores from SEM images. UV-Vis OD600 and CD spectra are means of 5 and 3 replicates, respectively and reported as mean±standard deviation. Individual UV-Vis and CD spectra, as well as fluorescent confocal and TEM micrographs, shown are representative plots from three individual experiments. CD data is with a variance in ellipticity of 0.2 millidegrees at each wavelength. Relative fluorescence data calculated from fluorescent confocal images represents the average of 10 independent measurements±standard deviation. For spheroid volume analysis, a Kruskal-Wallis test and Dunn's multiple comparisons test was performed using GraphPad Prism 8.

MS S. aureus = conditions: 24 hours, Gram Positive
[7] = test system: non-cancerous cell lines HUVEC and NL20; experiment: MTT cytotoxicity, non-cancerous control cell lines; type: cell-based, human
Procedure: as §2, §3, §4

[8] = Liposome disruption (OD600), normal membrane model
Procedure: (§6) Liposomes were prepared by extrusion techniques according to previous methods. Briefly, all liposomes were prepared in 2×concentration (5 mM). Healthy and cancer liposomal mimicking membranes were prepared with 72:23:[…] phosphatidylcholine (POPC):phosphatidylethanolamine (DOPE):phosphatidylserine (POPS) lipids, respectively. The lipids dissolved in chloroform were mixed in proper molar proportions before being evaporated under a stream of argon. The lipid film was then dried completely by lyophilization overnight. […] The extruded liposomes were then dialyzed in 3500 MWCO dialysis cassettes against water. Parallel optical density experiments were conducted measuring the absorbance at 600 nm (OD600) to track the kinetics and specificity of membrane disruption. Measurements were taken every 30 seconds for the first 10 min., followed by measurements every minute until 15 min.

[9] = test system: NCI/ADR-RES (drug-resistant ovarian carcinoma) cells; experiment: MTT cytotoxicity assay, NCI/ADR-RES; type: cell-based, human; conditions: for IC50: 48 hours treatment, MTT, read-out: Cancerous (IC50, μM) NCl/ADR-RES
Procedure: as §2, §3, §4, §5

[10] = Liposome disruption (OD600), cancer membrane model; conditions: OD600 and visual flocculates
Procedure: as §6

[11] = test system: polymicrobial panel (six bacterial lines); experiment: Antimicrobial activity against polymicrobial panel; type: cell-based; conditions: six bacterial lines
E. coli = conditions: 24 hours, Gram Negative
[12] = test system: OVCAR-3 ovarian carcinoma cells; conditions: for IC50: 48 h
B. subtilis (168) = conditions: 24 hours, Gram Positive
P. aeruginosa = conditions: 24 hours, Gram Negative
[13] = test system: patient-derived tumor cell spheroids (EOC15, 17, 19); experiment: Ex vivo 3D tumor spheroid culture; type: cell-based, human
Procedure: EOC patient-derived cells were cultured in 1:1 MCDB-105: M199 supplemented with 10% FBS and 1% penicillin-streptomycin. EOC patient-derived cells were provided by Dr. Katherine M. Aird under an Institutional Review Board-approved protocol. EOC patient-derived cells were collected from patient ascites fluid after paracentesis procedures. Cells were routinely tested for mycoplasma as previously described. […] Spheroid length and width was calculated using ImageJ. Spheroid volume was calculated using the following equation […] Statistical Methods […] IC50 values are reported as mean values±standard deviation. […] Pore size frequency distribution was completed by ImageJ FIJI on 4 independent cells and n=30 pores from SEM images. […] Individual UV-Vis and CD spectra, as well as fluorescent confocal and TEM micrographs, shown are representative plots from three individual experiments. CD data is with a variance in ellipticity of 0.2 millidegrees at each wavelength. Relative fluorescence data calculated from fluorescent confocal images represents the average of 10 independent measurements±standard deviation. For spheroid volume analysis, a Kruskal-Wallis test and Dunn's multiple comparisons test was performed using GraphPad Prism 8.

OVCAR-3 cells = experiment: Combinatorial (checkerboard) cytotoxicity, OVCAR-3; type: cell-based, human; conditions: for Combined FIC Score, OVCAR-3: chemotherapeutic in combination with MAD1, FIC <1 additive, <0.5 synergistic; for synergy with MAD1, OVCAR-3: drug-refractory line, combination with MAD1
Text: as §1

Compound	Combined FIC Score, NCl/ADR-RES (NCI/ADR-RES cells)	synergy with MAD1, NCI/ADR-RES (NCI/ADR-RES cells)	IC50 [1] [µM]	MIC (μM) MR S. aureus (MR S. aureus) [µM]	IC50 [3] [µM]	IC50 [4] [µM]	MIC (μM) M. tuberculosis (M. tuberculosis) [µM]	IC50 [6] [µM]	MIC (μM) MS S. aureus (MS S. aureus) [µM]	IC50 [9] [µM]	antimicrobial activity against polymicrobial panel [11]	MIC (μM) E. coli (E. coli) [µM]	IC50 [12] [µM]	MIC (μM) B. subtilis (168) (B. subtilis (168)) [µM]	MIC (μM) P. aeruginosa (P. aeruginosa) [µM]	drug potency (IC50) in NCI/ADR-RES on co-treatment with MAD1 (NCI/ADR-RES cells)	Combined FIC Score, OVCAR-3 (OVCAR-3 cells)	synergy with MAD1, OVCAR-3 (OVCAR-3 cells)	further results
CC(=O)O[C@H]1C(=O)[C@@]2(C)[C@H]([C@H](OC(=O)c3ccccc3)[C@]3(O)C[C@H](OC(=O)[C@H](O)[C@@H](NC(=O)c4ccccc4)c4ccccc4)C(C)=C1C3(C)C)[C@]1(OC(C)=O)CO[C@@H]1C[C@@H]2O [Ptx, Paclitaxel]	0.27	potently synergizes																	
H-LWKRWVGVWRKWL-NH2 [DAP1]			19	5	19.5	15.3	20	11.9	7	14	bactericidal activity	10	8.6	<0.6	20				Therapeutic Index T24 [2]: 1.3; IC50 [5]: 8.6 to 15.3 µM; therapeutic indices across cell lines ([5]; relative to HUVEC controls): ≤ 2.3; Therapeutic Index A549 ([6]; IC50-HUVEC/IC50-A549): 1.6; toxicity towards non-cancerous control cell lines [7]: nearly equal toxicity; disruption/interaction with normal (healthy) membrane liposomes [8]: little interaction affinity; Therapeutic Index NCl/ADR-RES ([9]; IC50-HUVEC/IC50-NCI/ADR-RES): 1.4; disruption/lysis of cancer membrane liposomes [10]: does not completely lyse; Therapeutic Index OVCAR-3 ([12]; IC50-HUVEC/IC50-OVCAR-3): 2.3
N.N.[Cl][Pt][Cl] [Cis, Cisplatin]	0.27	potently synergizes														restored the potency	0.31	potently synergizes	spheroid size, combination ([13]; 2 μM cisplatin combined with 4 μM MAD1, 48 hours): potent and synergistic anticancer effects; spheroid size, single agent ([13]; 2 μM cisplatin or 4 μM MAD1 alone, 48 hours): minimal reduction in size
COc1cccc2c1C(=O)c1c(O)c3c(c(O)c1C2=O)C[C@@](O)(C(=O)CO)C[C@@H]3O[C@H]1C[C@H](N)[C@H](O)[C@H](C)O1 [Dox, Doxorubicin]	0.37	potently synergizes														restored the potency	0.33	potently synergizes	
H-RWGKWFKKNSHLS-NH2 [DAP2]			> 100	>80	> 100	> 100	>80	> 100	>80	> 100	inactive	>80	> 100	>80	>80				activity towards all four tumor cell lines tested ([5]; result in words): inactive; Cancerous (IC50, μM) OVCAR-3 ([12]; 48 hours treatment, MTT): did not achieve an IC50
